In patent US5164388A, “Heterocyclic peptide renin inhibitors” (Abbott Laboratories, priority 1991, dated 1992) one finds IC50 data, which are given here for 24 compounds.

The target in the test is T1, human renal renin (Homo sapiens, UniProt P00797).
T1 construct: human renal renin, free from acid proteolytic activity; from tissue
T1 sequence (P00797 67-406): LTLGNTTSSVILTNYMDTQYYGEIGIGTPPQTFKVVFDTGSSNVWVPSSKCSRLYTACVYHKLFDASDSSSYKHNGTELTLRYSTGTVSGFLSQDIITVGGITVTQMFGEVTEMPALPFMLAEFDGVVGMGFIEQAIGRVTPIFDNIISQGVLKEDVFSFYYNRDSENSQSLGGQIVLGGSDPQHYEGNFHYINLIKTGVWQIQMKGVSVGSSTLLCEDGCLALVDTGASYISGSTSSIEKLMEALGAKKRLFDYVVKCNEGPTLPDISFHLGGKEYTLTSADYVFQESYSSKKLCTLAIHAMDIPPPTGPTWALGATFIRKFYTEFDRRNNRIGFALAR
Kind of test: Inhibition of human renal renin in vitro (angiotensin I formed, radioimmunoassay). Format: biochemical. The following applies: human angiotensinogen substrate, 37 degrees C., pH 6.0. Here is the method:
The novel compounds of the present invention are also useful for treating congestive heart failure. […] At the end of the incubation, the amount of angiotensin I formed is measured by radioimmunoassay and the molar concentration required to cause 50% inhibition, expressed as the IC50, is calculated.
`CCCC[C@@H](C(=O)OC)N(CC(=O)OCc1ccccc1)C[C@@H](Cc1ccccc1)NC(=O)OCc1ccccc1` [Example 22] registered an IC50 of 300 nM.
`CCCC[C@@H](C(=O)N[C@@H](CC1CCCCC1)[C@@H](O)[C@@H](O)CC(C)C)N1CCN(C(=O)OC(C)(C)C)[C@H](Cc2ccccc2)C1=O` [Example 44, 2(S)-(3R-Benzyl-4N-tert-butyloxycarbonyl-2-keto-piperazin-1-yl)-hexanoic acid Amide of 2(S)-Amino-1-cyclohexyl-3(R),4(S)-dihydroxy-6-methylheptane]: the IC50 is 15 nM.
The compound `CCN1CC(C(O)C(CC2CCCCC2)NC(=O)C(Cc2nccn2C(=O)OC(C)(C)C)N2CCN(S(=O)(=O)N3CCN(C)CC3)C(Cc3ccccc3)C2=O)OC1=O` [Example 142, 3-(3N-tert-butyloxycarbonyl-2-imidazolyl)-2-(3R-benzyl-4-N-(N-methylpiperazyl)-sulfonyl-2-keto-piperazin-1-yl)-propoionic acid Amide of (2'S,1'R,5S)-3-Ethyl-5-(1'-hydroxy-2'-amino-3'-cyclohexylpropyl)oxazolidin-2-one] yielded a 50% inhibitory concentration (IC50) of 5 nM.
The compound `CCCC[C@@H](C(=O)N[C@@H](CC1CCCCC1)[C@@H](O)[C@@H](O)CC(C)C)N1CCN(C(=O)N2CCN(C)CC2)[C@H](Cc2ccccc2)C1=O` [Example 47, 2(S)-(3R-Benzyl-4-N-(4-(N'-methyl)-piperazin-1-yl-carbonyl)-2-keto-piperazin-1-yl)-hexanoic acid Amide of 2(S)-Amino-1-cyclohexyl-3(R),4(S)-dihydroxy-6-methylheptane] had an IC50 of 81 nM.
`CC(C)C[C@H](O)[C@H](O)[C@H](CC1CCCCC1)NC(=O)[C@H](Cc1cnc[nH]1)N1CC[C@H](Cc2ccccc2)C1=O` [Example 73, (2S)-2-(Imidazol-4-ylmethyl)-2-((3S)-phenylmethyl-2-oxo-pyrrolidin-1-yl)acetic acid amide of (2S,3R,4S)-2-amino-1-cyclohexyl-3,4-dihydroxy-6-methylheptane]: 67 nM corresponded to half-maximal inhibition (IC50).
Take `CCCCC(C(=O)N[C@@H](CC1CCCCC1)[C@@H](O)[C@@H](O)CC(C)C)N1CCN(C(=O)N2CCOCC2)[C@H](Cc2ccccc2)C1` (stereo partly drawn) [Example 38A, 2-(3R-Benzyl-4-N-(morpholin-1-yl-carbonyl)-piperazin)-1-yl-hexanoic acid Amide of 2(S)-Amino-1-cyclohexyl-3(R),4(S)-dihydroxy-6-methylheptane]: it took 6.2 nM to reach half-maximal inhibition (IC50).
With `CC(C)C[C@H](O)[C@H](O)[C@H](CC1CCCCC1)NC(=O)C(Cc1cscn1)N1CCN(C(=O)N2CCOCC2)[C@H](Cc2ccccc2)C1=O` (stereo partly drawn) [Example 49B, 3-(4-Thiazolyl)-2-(3R-benzyl-4-N-morpholin-1-yl-carbonyl-2-keto-piperazin-1-yl)-propionic acid Amide of 2(S)-Amino-1-cyclohexyl-3(R),4(S)-dihydroxy-6-methylheptane] the figure was 32 nM.
Turning to `CC(C)C[C@H](O)[C@H](O)[C@H](CC1CCCCC1)NC(=O)[C@H](Cc1cscn1)N1CCC[C@@](Cc2ccccc2)(NS(=O)(=O)N2CCN(C)CC2)C1=O` [Example 151, (2S)-(3S)-((N-methylpiperazinsulfonyl)-amino-3-phenylmethyl-2-oxo-1-piperidinyl)-3-(4-thiazolyl) propionic acid amide of (2S.3R,4S)-2-amino-1-cyclohexyl-3,4-dihydroxy-6-methylheptane], the half-maximal inhibitory concentration (IC50) turned out to be 0.32 nM.
The compound `CCCCC(C(=O)N[C@@H](CC1CCCCC1)[C@@H](O)[C@@H](O)CC(C)C)N1CCN(c2ncccn2)CC1` (stereo partly drawn) [Example 12A, 2-(4-(2-Pyrimidyl)-piperazin-1-yl)-hexanoic acid Amide of 2(S)-Amino-1-cyclohexyl-3(R),4(S)-dihydroxy-6-methylheptane] yielded an IC50 of 770 nM.
Compound `CCCCC(C(=O)N[C@@H](CC1CCCCC1)[C@@H](O)[C@@H](O)CC(C)C)N1CCN(C(=O)N(C)C)[C@H](Cc2ccccc2)C1` (stereo partly drawn) [Example 35A, 2-(3R-Benzyl-4-N-dimethylaminocarbonyl-piperazin-1-yl)-hexanoic acid Amide of 2(S)-Amino-1-cyclohexyl-3(R),4(S)-dihydroxy-6-methylheptane] displayed an IC50 of 91 nM.
On to `CC(C)C[C@H](O)[C@H](O)[C@H](CC1CCCCC1)NC(=O)C(Cc1nccn1C(=O)OC(C)(C)C)N1CCN(S(=O)(=O)N2CCN(C)CC2)[C@H](Cc2ccccc2)C1=O` (stereo partly drawn) [Example 144, 3-(3N-tert-butyloxycarbonyl-2-imidazolyl)-2-(3R-benzyl-4N-(N-methylpiperazyl)-sulfonyl-2-keto-piperazin-1-yl)-propionic acid Amide of 2(S)-Amino-1-cyclohexyl-3(R),4(S)-dihydroxy-6-methylheptane], for which half-maximal inhibition (IC50) required 6.6 nM.
For `CCCCC(C(=O)N[C@@H](CC1CCCCC1)[C@@H](O)[C@@H](O)CC(C)C)N1CCN(C(=O)OC(C)(C)C)[C@@H](Cc2ccccc2)C1` (stereo partly drawn) [Example 34A, 2-(3S-Benzyl-4-N-tert-butyloxycarbonyl-piperazin-1-yl)-hexanoic acid Amide of 2(S)-Amino-1-cyclohexyl-3(R),4(S)-dihydroxy-6-methylheptane], 100 nM corresponded to half-maximal inhibition (IC50).
Take `CC(C)C[C@H](O)[C@H](O)[C@H](CC1CCCCC1)NC(=O)[C@@H](Cc1c[nH]cn1)N1CCN(C(=O)OC(C)(C)C)[C@H](Cc2ccccc2)C1=O` [Example 45, 3R-(4-Imidazolyl)-2(R)-(3R-benzyl-4-N-tert-butyloxycarbonyl-2-keto-piperazin-1-yl)-propionic acid Amide of 2(S)-Amino-1-cyclohexyl-3(R),4(S)-dihydroxy-6-methylheptane]: it took 13 nM to reach half-maximal inhibition (IC50).
`CCCC[C@@H](C(=O)N[C@@H](CC1CCCCC1)[C@@H](O)[C@@H](O)CC(C)C)N1CCN(C(=O)N2CCOCC2)[C@H](Cc2ccccc2)C1=O` [Example 50, 2(S)-(3R-Benzyl-4-N-morpholin-1-yl-carbonyl-2-keto-piperazin-1-yl)-hexanoicacid Amide of 2(S)-Amino-1-cyclohexyl-3(R),4(S)-dihydroxy-6-methylheptane] came in with a half-maximal inhibitory concentration (IC50) of 22 nM.
In the case of `CCCC[C@@H](C(=O)N[C@@H](CC1CCCCC1)[C@@H](O)[C@@H](O)CC(C)C)N1CCCN(C(=O)OC(C)(C)C)[C@H](Cc2ccccc2)C1=O` [Example 132, 2(S)-(3R-Benzyl-4N-tert-butyloxycarbonyl-2-keto-homopiperazin-1-yl)-hexanoic acid Amide of 2(S)-Amino-1-cyclohexyl-3(R),4(S)-dihydroxy-6-methylheptane], the IC50 is 340 nM.
Regarding `CCCCC(C(=O)N[C@@H](CC1CCCCC1)[C@@H](O)[C@@H](O)CC(C)C)N1CCC(Cc2ccccc2)CC1` (stereo partly drawn) [Example 13, 2-(4-Benzylpiperidin-1-yl)-hexanoic acid Amide of 2(S)-Amino-1-cyclohexyl-3(R),4(S)-dihydroxy-6-methylheptane], inhibition was half-maximal at 430 nM (IC50).
Next, `CCCCC(C(=O)N[C@@H](CC1CCCCC1)[C@@H](O)[C@@H](O)CC(C)C)N1CCN(Cc2ccccc2)CC1` (stereo partly drawn) [Example 32A, 2-(4-Benzyl-piperazin-1-yl)-hexanoic acid Amide of 2(S)-Amino-1-cyclohexyl-3(R),4(S)-dihydroxy-6-methylheptane]: 810 nM.
With `CC(C)C[C@H](O)[C@H](O)[C@H](CC1CCCCC1)NC(=O)C(Cc1ncc[nH]1)N1CCN(S(=O)(=O)N2CCN(C)CC2)[C@H](Cc2ccccc2)C1=O` (stereo partly drawn) [Example 145] the figure was 1.7 nM; with `CC(C)C[C@H](O)[C@H](O)[C@H](CC1CCCCC1)NC(=O)[C@H](Cc1c[nH]cn1)N1CCN(C(=O)N2CCOCC2)[C@H](Cc2ccccc2)C1=O` [Example 51, 3-(4-Imidazolyl)-2(S)-(3R-benzyl-4-N-morpholin-1-yl-carbonyl-2-keto-piperazin-1-yl) -propionic Acid Amide of 2(S)-Amino-1-cyclohexyl-3(R),4(S)-dihydroxy-6-methylheptane], 230 nM; with `CCCCNC(=O)[C@H](C[C@H](O)[C@H](CC1CCCCC1)NC(=O)C(Cc1cscn1)N1CCN(S(=O)(=O)N2CCN(C)CC2)[C@H](Cc2ccccc2)C1=O)C(C)C` (stereo partly drawn) [Example 141], 1.5 nM.
As to `CC(C)C[C@H](O)[C@H](O)[C@H](CC1CCCCC1)NC(=O)C(Cc1cnc[nH]1)N1CCC[C@@](Cc2ccccc2)(NC(=O)OCc2ccccc2)C1=O` (single isomer, unassigned) [Example 87, (2R or 2S)-((3S)-(Benzyloxycarbonyl)amino)-3-phenylmethyl-2-oxo-1-piperidinyl)-3-(4-imidazolyl)propionic acid amide of (2S,3R,4S)-2-amino-1-cyclohexyl-3,4-dihydroxy-6-methylheptane], the IC50 came to 1.4 nM.
Next, `CC(C)C[C@H](O)[C@H](O)[C@H](CC1CCCCC1)NC(=O)[C@H](Cc1c[nH]cn1)N1CC[C@@H](Cc2ccccc2)C1=O` [Example 121, (2S)-2-(Imidazol-4-ylmethyl)-2-((3R)-phenylmethyl-2-oxopyrrolidin-1-yl)acetic Acid Amide of (2S)-Amino-1-cyclohexyl-3(R),4(S)-dihydroxy-6-methylheptane]: 430 nM; `CC(C)C[C@H](O)[C@H](O)[C@H](CC1CCCCC1)NC(=O)C(Cc1cnc[nH]1)N1CCC(Cc2ccccc2)(NC(=O)OCc2ccccc2)C1=O` (single isomer, unassigned) [Example 63B]: 15 nM; `CCCCC(C(=O)N[C@@H](CC1CCCCC1)[C@@H](O)[C@@H](O)CC(C)C)N1CCCC(Cc2ccccc2)C1=O` (mixture of isomers) [Example 56A, 2(RS)-(3-Benzyl-2-oxo-1-piperidin-1-yl)-hexanoic acid Amide of 2(S)-Amino-1-cyclohexyl-3(R),4(S)-dihydroxy-6-heptane]: 410 nM.

By IC50 is commonly meant the point on the concentration scale where inhibition reaches its midpoint.
